Measured values published in patent EP0929544B1, “TRICYCLIC ANTITUMOR COMPOUNDS BEING FARNESYL PROTEIN TRANSFERASE INHIBITORS” (SCHERING CORPORATION, priority 1996, dated 1998).
Like-named read-outs stand apart in the source and are kept apart here.

Experiments:
[1] = test system: Ras processing in COS monkey kidney cells; experiment: Cell-based assay: transient expression of val12-Ha-Ras-CVLS in COS cells, effect on Ras processing (immunoblot); details: Primates, read-out: INHIBITION OF RAS PROCESSING IC50
Text: 2. Cell-Based Assay: Transient expression of val^12-Ha-Ras-CVLS and val^12-Ha-Ras-CVLL in COS monkey kidney cells: Effect of famesyl protein transferase inhibitors on Ras processing and on disordered cell growth induced by transforming Ras.
COS monkey kidney cells were transfected by electroporation with the plasmid pSV-SPORT (Gibco/BRL) containing a cDNA insert encoding either Ras-CVLS or Ras-CVLL, leading to transient overexpression of a Ras substrate for either famesyl protein transferase or geranylgeranyl protein transferase I, respectively (see above).
Following electroporation, cells were plated into 6-well tissue culture dishes containing 1.5 ml of Dulbecco's-modified Eagle's media (GIBCO, Inc.) supplemented with 10% fetal calf serum and the appropriate famesyl protein transferase inhibitors. After 24 hours, media was removed and fresh media containing the appropriate drugs was re-added.
48 hours after electroporation cells were examined under the microscope to monitor disordered cell growth induced by transforming Ras. Cells expressing transforming Ras become more rounded and refractile and overgrow the monolayer, reminiscent of the transformed phenotype. Cells were then photographed, washed twice with 1 ml of cold phosphate-buffered saline (PBS) and removed from the dish by scraping with a rubber policeman into 1 ml of a buffer containing 25 mM Tris, pH 8.0; 1 mM ethylenediamine tetraacetic acid; 1 mM phenylmethylsulfonyl fluoride; […]; and 0.1 mM pepstatin. Cells were lysed by homogenization and cell debris was removed by centrifugation at 2000 × g for 10 min.
Cellular protein was precipitated by addition of ice-cold trichloroacetic acid and redissolved in […] of SDS-electrophoresis sample buffer. Samples ([…]) were loaded onto 14% polyacrylamide minigels (Novex, Inc.) and electrophoresed until the tracking dye neared the bottom of the gel. Proteins resolved on the gels were electroblotted onto nitrocellulose membranes for immunodetection.
Membranes were blocked by incubation overnight at 4°C in PBS containing 2.5% dried milk and 0.5% Tween-20 and then incubated with a Ras-specific monoclonal antibody, Y13-259 (Furth, M.E., et al., (1982), Monoclonal antibodies to the p21 products of the transforming gene of Harvey murine sarcome virus and of the cellular ras gene family, J. Virol. 43: 294-304), in PBS containing 1% fetal calf serum for one hour at room temperature. After washing, membranes were incubated for one hour at room temperature with a 1:5000 dilution of secondary antibody, rabbit anti-rat IgG conjugated to horseradish peroxidase, in PBS containing 1% fetal calf serum. The presence of processed and unprocessed Ras-CVLS or Ras-CVLL was detected using a colorimetric peroxidase reagent (4-chloro-1-naphthol) as described by the manufacturer (Bio-Rad).

[2] = molecular target: T1, Farnesyl protein transferase (FPT) (Rattus norvegicus, UniProt Q02293+Q04631); experiment: In vitro enzyme assay: inhibition of farnesyl protein transferase (transfer of [3H]farnesyl from [3H]farnesyl pyrophosphate to Ras-CVLS); assay type: biochemical; details: for IC50: FPT INHIBITION, read-out: FPT IC50
T1 construct: Farnesyl protein transferase (FPT) was partially purified from rat brain; from tissue; host or cells: rat brain
Text: 1. In vitro enzyme assays: Inhibition of farnesyl protein transferase and geranylgeranyl protein transferase.
Farnesyl protein transferase (FPT) was partially purified from rat brain by ammonium sulfate fractionation followed by Q-Sepharose (Pharmacia, Inc.) anion exchange chromatography essentially as described by Yokoyama et al (Yokoyama, K., et al., (1991), A protein geranylgeranyltransferase from bovine brain: Implications for protein prenylation specificity, Proc. Natl. Acad. Sci USA 88: 5302-5306, the disclosure of which is incorporated herein by reference thereto). Human famesyl protein transferase was also expressed in E. coli, using cDNA clones encoding both the a and b subunits. The methods used were similar to those published (Omer, C. et al., (1993), Characterization of recombinant human farnesyl protein transferase: Cloning, expression, famesyl diphosphate binding, and functional homology with yeast prenyl-protein transferases, Biochemistry 32:5167-5176). Human famesyl protein transferase was partially-purified from the soluble protein fraction of E. coli as described above. […] Two forms of val^12-Ha-Ras protein were prepared as substrates for these enzymes, differing in their carboxy terminal sequence. One form terminated in cysteine-valine-leucine-serine (Ras-CVLS) the other in cystein-valine-leucine-leucine (Ras-CVLL). Ras-CVLS is a substrate for the famesyl protein transferase while Ras-CVLL is a substrate for geranylgeranyl protein transferase I. The cDNAs encoding these proteins were constructed so that the proteins contain an amino-terminal extension of 6 histidine residues. Both proteins were expressed in Escherichia coli and purified using metal chelate affinity chromatography. The radiolabelled isoprenyl pyrophosphate substrates, [^3H]farnesyl pyrophosphate and [^3H]geranylgeranyl pyrophosphate, were purchased from DuPont/New England Nuclear.
Several methods for measuring famesyl protein transferase activity have been described (Reiss et al 1990, Cell 62: 81; Schaber et al 1990, J. Biol. Chem. 265: 14701; Manne et al 1990, PNAS 87: 7541; and Barbacid & Manne 1993, U.S. Patent No. 5,185,248). […] The reaction was allowed to proceed for 30 minutes at room temperature and then stopped with 0.5 ml of 4% sodium dodecyl sulfate (SDS) followed by 0.5 ml of cold 30% TCA. Samples were allowed to sit on ice for 45 minutes and precipitated Ras protein was then collected on GF/C filter paper mats using a Brandel cell harvester. Filter mats were washed once with 6% TCA, 2% SDS and radioactivity was measured in a Wallac 1204 Betaplate BS liquid scintillation counter. Percent inhibition was calculated relative to the DMSO vehicle control.

T1 sequence (Q02293 whole entry, one chain of several): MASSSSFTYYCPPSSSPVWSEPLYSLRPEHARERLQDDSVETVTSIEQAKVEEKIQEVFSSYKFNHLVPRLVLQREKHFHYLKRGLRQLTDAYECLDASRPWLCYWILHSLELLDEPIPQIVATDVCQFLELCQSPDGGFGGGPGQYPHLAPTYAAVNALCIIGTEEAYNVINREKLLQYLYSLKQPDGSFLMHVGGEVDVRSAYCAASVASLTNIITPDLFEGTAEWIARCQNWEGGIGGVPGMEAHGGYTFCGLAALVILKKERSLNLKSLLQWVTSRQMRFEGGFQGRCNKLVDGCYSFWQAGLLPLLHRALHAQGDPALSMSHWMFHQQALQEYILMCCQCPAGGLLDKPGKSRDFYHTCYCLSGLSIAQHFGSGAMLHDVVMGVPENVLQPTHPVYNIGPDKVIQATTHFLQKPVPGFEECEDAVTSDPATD

Compound | IC50 ([1]; ACTIVITY IN COS CELLS) [nM] | IC50 [2] [nM] | IC50 ([1]; COS) [nM] | inhibition at 0.093 µM ([2]; @ 93 nM, read-out: FPT inhibition (percent inhibition)) [%]
O=C(CCC(=O)N1CCC(C2c3ncc(Br)cc3CCc3cc(Cl)cc(Cl)c32)CC1)N1CCCC1 (single isomer, unassigned) [Example 14] | 250 | 16 | – | –
CN(C)CCCC(=O)N1CCC(C2c3ncc(Br)cc3CCc3cc(Cl)cc(Br)c32)CC1 (single isomer, unassigned; (+)) [Example 2, (+)-4-(3,10-DIBROMO-8-CHLORO-6,11-DIHYDRO-5H-BENZO[5,6]CYCLO-HEPTA[1,2-b]PYRIDIN-11-YL)-1-[4-(DIMETHYLAMINO)-1-OXOBUTYL]PIPERIDINE] | 13 | 4 | – | –
CN(C)C(=O)CCC(=O)N1CCC(C2c3ncc(Br)cc3CCc3cc(Cl)cc(Cl)c32)CC1 (single isomer, unassigned) [Example 13] | 200 | 15 | – | –
O=C(CN1CCCC1=O)N1CCC(C2c3ncc(Br)cc3CCc3cc(Cl)cc(Cl)c32)CC1 (single isomer, unassigned) [Example 10] | 500 | 19 | – | –
O=C(O)CCCCCC(=O)N1CCC([C@H]2c3ncc(Br)cc3CCc3cc(Cl)cc(Br)c32)CC1 [Example 58, (+)-SODIUM 4-(3,10-DIBROMO-8-CHLORO-6,11-DIHYDRO-5H-BENZO[5,6]CYCLO-HEPTA[1,2-b]PYRIDIN-11(R)-YL)-OMEGA-OXO -1-PIPERIDININE HEPTANOATE] | – | 9.1 | 300 | –
O=C(NCCCC(=O)N1CCC(C2c3ncc(Br)cc3CCc3cc(Cl)cc(Cl)c32)CC1)c1cccnc1 (single isomer, unassigned) [Example 18] | 540 | – | – | 9
